The nature of one data set: in vitro. The protocol:
Stock solutions of the controls and of 1–9 were prepared in DMSO at a concentration of 10 mM, then they were further diluted with PBS (pH 7.4) to a final concentration of 10 μM. Five μL of a lecithin/dodecane mixture and 300 μL of PBS (pH 7.4) solution were pipetted into each acceptor plate well, followed by addition of 300 μL of the solutions of the controls or 1–9 to each well of the donor plate. The acceptor plate was placed into the donor plate followed by incubation at 25 °C, 60 rpm for 16 h.[31] After incubation, aliquots of 50 μL from each well of the acceptor and donor plates are transferred into a 96-well plate and 200 μL of acetonitrile was added to each well. Samples were centrifuged for 20 min and compound concentrations were determined by LC/MS/MS (LC system: Shimadzu; Triple Quad).

Data set [1] is described as follows: chromatographic Log D at pH 7.5. In kind it is physicochemical.
From the text: The chromatographic lipophilicities of the nine PROTACs were therefore determined to understand to what extent the cell permeability differences may originate from lipophilicity.
The next data set is described as follows: physchem. Particulars: PBS, pH 6.5, aqueous buffer, kinetic from dmso stock.
A short description of data set [2]: pKa determined by photometry. In kind it is physicochemical. The protocol:
Both compounds were therefore treated as being mainly uncharged in the subsequent analyses, and the uncharged form of 7 was used in the NMR studies of its conformational ensemble in chloroform.
The pKa of 7 was determined by photometry as reported previously.[57]

For the next data set, the target named is VHL (Homo sapiens, UniProt P40337). Nature of the data set: cell-based VHL binding assay (NanoBRET, live mode). Particulars: classified by in cellulo/in vitro ratio. As to the method:
IC50 values were calculated using a four-parameter fit, with a commercial software package (Genedata Screener, Switzerland).

For data set [3] the following is noted: PBS at pH 6.5; cited from earlier work.
A further data set deals with ERK5. Details: method as in PMID 33488971. The note with it: previously reported PROTAC; read-out: IC50 for binding to ERK5; cited from earlier work.
[4] abbreviates: pH 7.5, chromatographic lipophilicity, pH 7.5, read-out: LogD (pH 7.5).
Setting [5] is: pH 7.5, chromatographic, supplement, read-out: LogD, pH 7.50.

This is an account of results in paper PMC11726670, “Impact of Linker Composition on VHL PROTAC Cell Permeability” (Journal of Medicinal Chemistry, 2024).

Each structure is given as a SMILES string. Values after ≈ are worked out from the molar mass of the structure shown. Read-outs that look alike come from different tables or passages of the source. Some results are limits rather than exact numbers.

Sequence of VHL (P40337 whole entry): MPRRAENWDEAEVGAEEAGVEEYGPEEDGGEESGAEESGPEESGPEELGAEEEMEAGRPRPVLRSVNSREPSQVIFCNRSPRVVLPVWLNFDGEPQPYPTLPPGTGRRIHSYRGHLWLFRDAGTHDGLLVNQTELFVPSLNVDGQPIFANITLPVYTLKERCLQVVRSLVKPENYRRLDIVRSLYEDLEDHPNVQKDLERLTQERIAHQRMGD
From the text for physchem: Before determining the cell permeability of PROTACs 1–8 we assessed their aqueous solubility.

Take `CN(Cc1cnc2nc(N)nc(N)c2n1)c1ccc(C(=O)N[C@@H](CCC(=O)O)C(=O)O)cc1` [Methotrexate, reference compound]: in the data set “in vitro” (PAMPA, pH 7.4), the Papp at 16 h, 10 μM was 0.00427 ×10⁻⁶ cm/s.

As for `Cc1ncsc1-c1ccc(CNC(=O)[C@@H]2C[C@@H](O)CN2C(=O)[C@@H](NC(=O)CCCCCCCCOc2cnc3c(C4CCN(C(=O)c5ccc(OC(F)(F)F)cc5)CC4)ncnc3c2)C(C)(C)C)cc1` [PROTAC 1, 3-Methyl-N-{9-[(4-{1-[4-(trifluoromethoxy)benzoyl]piperidin-4-yl}pyrido[3,2-d]pyrimidin-7-yl)oxy]nonanoyl}-L-valyl-(4R)-4-hydroxy-N-[4-(4-methyl-1,3-thiazol-5-yl)benzyl]-L-prolinamide], the “PAMPA, mean (LogPe, cm/s)” value in the data set “in vitro” (16 h, 10 μM) is given as -8,29 cm/s. Further, in the data set “in vitro” (16 h, 10 μM, pH 7.4), the “PAMPA Log[Pe (cm/s)]” value is recorded as “–8.29 ± 0.023 cm/s”. Besides, the chromatographic logD turned out to be 3.8 in data set [1] (setting [4]) and 3.81 in data set [1] (setting [5]). Besides, in the data set “physchem”, the solubility is less than 0.1 µM. The compound also registered a solubility (kinetic) in “physchem” of less than 1 µM.

With `Cc1ncsc1-c1ccc(CNC(=O)[C@@H]2C[C@@H](O)CN2C(=O)[C@@H](NC(=O)CCOCCOCCOc2cnc3c(C4CCN(C(=O)c5ccc(OC(F)(F)F)cc5)CC4)ncnc3c2)C(C)(C)C)cc1` [PROTAC 2, 3-Methyl-N-[3-(2-{2-[(4-{1-[4-(trifluoromethoxy)benzoyl]piperidin-4-yl}pyrido[3,2-d]pyrimidin-7-yl)oxy]ethoxy}ethoxy)propanoyl]-L-valyl-(4R)-4-hydroxy-N-[4-(4-methyl-1,3-thiazol-5-yl)benzyl]-L-prolinamide], in “in vitro”, the “higher PAMPA permeability” value is ~3 orders of magnitude. In addition, the “PAMPA, mean (LogPe, cm/s)” value in “in vitro” (16 h, 10 μM) is given as -5,42 cm/s. In addition, the “PAMPA Log[Pe (cm/s)]” value in the data set “in vitro” (16 h, 10 μM, pH 7.4) is “–5.42 ± 0.035 cm/s”. Moreover, in data set [1] (setting [4]), the chromatographic logD was 2.9. In addition, in data set [1] (setting [5]), the chromatographic logD came to 2.89. In “physchem”, the concentration in solution (solubility) came to 0.64 µM (≈ 0.634 µg/mL) and the solubility (kinetic) was less than 1 µM.

For `Cc1ncsc1-c1ccc(CNC(=O)[C@@H]2C[C@@H](O)CN2C(=O)[C@@H](NC(=O)CCOCCNC(=O)COc2cnc3c(C4CCN(C(=O)c5ccc(OC(F)(F)F)cc5)CC4)ncnc3c2)C(C)(C)C)cc1` [PROTAC 3, 3-Methyl-N-[3-(2-{2-[(4-{1-[4-(trifluoromethoxy)benzoyl]piperidin-4-yl}pyrido[3,2-d]pyrimidin-7-yl)oxy]acetamido}ethoxy)propanoyl]-L-valyl-(4R)-4-hydroxy-N-[4-(4-methyl-1,3-thiazol-5-yl)benzyl]-L-prolinamide], the “PAMPA, mean (LogPe, cm/s)” value in the data set “in vitro” (16 h, 10 μM) was -6,21 cm/s. For the same compound, the “PAMPA Log[Pe (cm/s)]” value in the data set “in vitro” (16 h, 10 μM, pH 7.4) is “–6.21 ± 0.046 cm/s”. In addition, the figures for the chromatographic logD in data set [1] (setting [4]) and in data set [1] (setting [5]) were 2.7 and 2.66, respectively. In addition, the solubility in “physchem” worked out at 17 µM (≈ 17.1 µg/mL). The solubility (kinetic) in “physchem” lay in the range of 10 to 20 µM (≈ 10 to 20.1 µg/mL).

As to `Cc1ncsc1-c1ccc(CNC(=O)[C@@H]2C[C@@H](O)CN2C(=O)[C@@H](NC(=O)COCc2cn(CCOc3cnc4c(C5CCN(C(=O)c6ccc(OC(F)(F)F)cc6)CC5)ncnc4c3)nn2)C(C)(C)C)cc1` [PROTAC 4, 3-Methyl-N-{[(1-{2-[(4-{1-[4-(trifluoromethoxy)benzoyl]piperidin-4-yl}pyrido[3,2-d]pyrimidin-7-yl)oxy]ethyl}-1H-1,2,3-triazol-4-yl)methoxy]acetyl}-L-valyl-(4R)-4-hydroxy-N-[4-(4-methyl-1,3-thiazol-5-yl)benzyl]-L-prolinamide], in the data set “in vitro” (16 h, 10 μM), the “PAMPA, mean (LogPe, cm/s)” value is recorded as <-7,94 cm/s. The “PAMPA Log[Pe (cm/s)]” value in “in vitro” (16 h, 10 μM, pH 7.4) is less than −7.94 ± 0.20 cm/s. In addition, the chromatographic logD in data set [1] (setting [4]) came out at 2.7. For the same compound, in the data set “physchem”, the solubility came to 12.1 µM (≈ 12.3 µg/mL) and the kinetic solubility was 10 to 20 µM (≈ 10.1 to 20.3 µg/mL).

On to `Cc1ncsc1-c1ccc(CNC(=O)[C@@H]2C[C@@H](O)CN2C(=O)[C@@H](NC(=O)Cc2ccc(OCCOc3cnc4c(C5CCN(C(=O)c6ccc(OC(F)(F)F)cc6)CC5)ncnc4c3)cc2)C(C)(C)C)cc1` [PROTAC 5, 3-Methyl-N-[(4-{2-[(4-{1-[4-(trifluoromethoxy)benzoyl]piperidin-4-yl}pyrido[3,2-d]pyrimidin-7-yl)oxy]ethoxy}phenyl)acetyl]-L-valyl-(4R)-4-hydroxy-N-[4-(4-methyl-1,3-thiazol-5-yl)benzyl]-L-prolinamide], for which the “PAMPA, mean (LogPe, cm/s)” value in the data set “in vitro” (16 h, 10 μM) is reported as <-7,56 cm/s. In the data set “in vitro” (16 h, 10 μM, pH 7.4), the “PAMPA Log[Pe (cm/s)]” value is recorded as less than −7.56 ± 0.30 cm/s. Also, the chromatographic logD in data set [1] (setting [4]) is 3.2. In addition, the chromatographic logD in data set [1] (setting [5]) stood at 3.25. Besides, in the data set “physchem”, the concentration in solution (solubility) was 0.36 µM (≈ 0.363 µg/mL) and the kinetic solubility is less than 1 µM.

For `Cc1ncsc1-c1ccc(CNC(=O)[C@@H]2C[C@@H](O)CN2C(=O)[C@@H](NC(=O)Cc2ccc(OCCOc3cnc4c(C5CCN(C(=O)c6ccc(OC(F)(F)F)cc6)CC5)ncnc4c3)cn2)C(C)(C)C)cc1` [PROTAC 6, 3-Methyl-N-[(5-{2-[(4-{1-[4-(trifluoromethoxy)benzoyl]piperidin-4-yl}pyrido[3,2-d]pyrimidin-7-yl)oxy]ethoxy}pyridin-2-yl)acetyl]-L-valyl-(4R)-4-hydroxy-N-[4-(4-methyl-1,3-thiazol-5-yl)benzyl]-L-prolinamide], in the data set “in vitro” (16 h, 10 μM), the “PAMPA, mean (LogPe, cm/s)” value is listed as -7,28 cm/s. Also, the “PAMPA Log[Pe (cm/s)]” value in “in vitro” (16 h, 10 μM, pH 7.4) is listed as “–7.28 ± 0.035 cm/s”. For the same compound, the chromatographic logD in data set [1] (setting [4]) worked out at 3. Moreover, in data set [1] (setting [5]), the chromatographic logD is 2.97. In the data set “physchem”, this compound had a solubility of 0.52 µM (≈ 0.525 µg/mL) and a kinetic solubility of less than 1 µM.

For `Cc1ncsc1-c1ccc(CNC(=O)[C@@H]2C[C@@H](O)CN2C(=O)[C@@H](NC(=O)CN(C)CCCCCCOc2cnc3c(C4CCN(C(=O)c5ccc(OC(F)(F)F)cc5)CC4)ncnc3c2)C(C)(C)C)cc1` [PROTAC 7, N-Methyl-N-{6-[(4-{1-[4-(trifluoromethoxy)benzoyl]piperidin-4-yl}pyrido[3,2-d]pyrimidin-7-yl)oxy]hexyl}glycyl-3-methyl-L-valyl-(4R)-4-hydroxy-N-[4-(4-methyl-1,3-thiazol-5-yl)benzyl]-L-prolinamide], in the data set “in vitro” (16 h, 10 μM), the “PAMPA, mean (LogPe, cm/s)” value is -6,67 cm/s and the “improvement in PAMPA permeability” value worked out at 40 fold. For the same compound, the “PAMPA Log[Pe (cm/s)]” value in “in vitro” (16 h, 10 μM, pH 7.4) was “–6.67 ± 0.017 cm/s”. Besides, in data set [1] (setting [4]), the chromatographic logD came out at 3.7. Besides, in data set [1] (setting [5]), the chromatographic logD is 3.74. The compound also showed an uncharged fraction in data set [2] (at pH 7.4, from determined pKa) of 76%. In data set [2] (at physiological pH), this compound came in with a partially charged fraction of less than 25%. The compound also displayed a pKa in data set [2] (tertiary amine of linker, photometry) of 6.9.

In the case of `Cc1ncsc1-c1ccc(CNC(=O)[C@@H]2C[C@@H](O)CN2C(=O)[C@@H](NC(=O)CN2CCC(CCCOc3cnc4c(C5CCN(C(=O)c6ccc(OC(F)(F)F)cc6)CC5)ncnc4c3)CC2)C(C)(C)C)cc1` [PROTAC 8, 3-Methyl-N-[(4-{3-[(4-{1-[4-(trifluoromethoxy)benzoyl]piperidin-4-yl}pyrido[3,2-d]pyrimidin-7-yl)oxy]propyl}piperidin-1-yl)acetyl]-L-valyl-(4R)-4-hydroxy-N-[4-(4-methyl-1,3-thiazol-5-yl)benzyl]-L-prolinamide], in the data set “in vitro” (16 h, 10 μM), the “PAMPA, mean (LogPe, cm/s)” value is recorded as -6,9 cm/s. Further, the “PAMPA Log[Pe (cm/s)]” value in the data set “in vitro” (16 h, 10 μM, pH 7.4) is recorded as “–6.90 ± 0.061 cm/s”. For the same compound, the values for the chromatographic logD in data set [1] (setting [4]) and in data set [1] (setting [5]) were 3.6 and 3.64, respectively.

In the case of `Cc1ncsc1-c1ccc(CNC(=O)[C@@H]2C[C@@H](O)CN2C(=O)[C@@H](NC(=O)COCCOCCNC(=O)COc2cnc3c(C4CCN(C(=O)c5ccc(OC(F)(F)F)cc5)CC4)ncnc3c2)C(C)(C)C)cc1` [PROTAC 9], in “in vitro” (16 h, 10 μM), the “PAMPA, mean (LogPe, cm/s)” value is recorded as -6,3 cm/s. Further, the “PAMPA Log[Pe (cm/s)]” value in “in vitro” (16 h, 10 μM, pH 7.4) is on record as “–6.30 ± 0.074 cm/s”. Further, on VHL, the “cell permeability class (in words)” value is listed as “high”. Also, the chromatographic logD stood at 2.7 in data set [1] (setting [4]) and 2.68 in data set [1] (setting [5]). Also, in data set [3], the kinetic solubility was 6.8 µM (≈ 7.03 µg/mL). For the same compound, in the data set with ERK5, the IC50 was 1230 nM.
